Molecular target: T1, EDNRB (Homo sapiens, UniProt P24530)
T1 construct: purchased Promega (in-house HiBiT-GPCR construct library, NanoBRET)
T1 sequence (P24530 27-442): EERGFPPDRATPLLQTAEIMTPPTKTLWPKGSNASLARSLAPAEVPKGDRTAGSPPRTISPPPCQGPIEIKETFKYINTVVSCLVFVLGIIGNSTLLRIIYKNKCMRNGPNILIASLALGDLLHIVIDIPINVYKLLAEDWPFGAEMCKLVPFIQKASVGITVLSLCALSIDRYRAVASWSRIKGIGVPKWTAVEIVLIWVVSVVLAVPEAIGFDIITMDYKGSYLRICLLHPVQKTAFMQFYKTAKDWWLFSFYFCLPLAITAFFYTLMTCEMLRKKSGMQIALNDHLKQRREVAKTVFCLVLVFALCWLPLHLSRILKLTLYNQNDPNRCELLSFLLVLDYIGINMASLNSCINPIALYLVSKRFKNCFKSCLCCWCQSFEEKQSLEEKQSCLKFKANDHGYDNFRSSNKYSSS
Experiment: NanoBRET screen HiBiT-EDNRB in HEK293
Type: binding
Procedure: Each tracer candidate was screened across the entire library of HiBiT-GPCR constructs using NanoBRET as the detection modality. As depicted in Figure 4A, the specificity of interactions was evaluated through decrease in BRET due to competitive displacement of a bound tracer by excess parental compound. Each tracer was analyzed for binding to each HiBiT-GPCR fusion in the absence and in the presence of competing parental compound. Briefly, HEK293 cells were transfected with HiBiT-GPCR constructs diluted into promoterless DNA to reduce expression and maximize translocation to the cell surface. Each tracer candidate was then screened at concentrations of 1 μM and 0.1 μM across cells expressing these fusions. Cells were treated for 1.5 h with tracer either alone or in the presence of 20 μM competing parental compound (i.e., control). BRET was measured upon addition of purified LgBiT and subsequent complementation with HiBiT genetically fused to a GPCR. The specificity of interactions was assessed through a decrease in BRET signal due to competitive displacement of the bound tracer. To further gauge the robustness of these interactions, the fold response over the control (i.e., BRETtracer/BRETcontrol) was calculated. We chose a 1.5-fold response, which translates to ≥7-fold signal over noise as the minimal threshold required to score an interaction as positive.
HiBiT-GPCR DNA constructs were diluted in 10 mM Tris pH 8 to a final concentration of 0.01 μg/μL, arrayed in 96-well plates and stored at −20 °C. For transfection, HEK293 cells were suspended in Opti-MEM (without phenol red) supplemented with 2% fetal bovine serum (Seradigm) and 100 units/mL penicillin–streptomycin (Gibco) at a final concentration of 220,000 cells/mL and dispensed into white 96-well plates at 90 μL/well. Subsequent transfections and screens were carried using an Agilent Bravo Automated Liquid Handling Platform. First, the 96-well HiBiT DNA arrays were diluted 25-fold in Opti-MEM (without serum or phenol red) to a final concentration of 0.0004 μg/μL and 20 μL of the diluted DNAs were transferred into new 96-well plates. Next, promoterless carrier DNA (1 μg/μL) was diluted 25-fold (0.04 μg/μL) and then dispensed into the diluted arrays at 20 μL/well. Following brief mixing, Viafect transfection reagent (Promega) diluted 16-fold into Opti-MEM was dispensed into the plates at 40 μL/well. After mixing by pipetting, plates were incubated for 10 min on the pipetting station deck. The DNA-transfection reagent complexes were then added to plates containing cells. To facilitate the screen, 10 μL of DNA-transfection reagent complexes were added in duplicates to the top 4 and bottom 4 rows, resulting in two identical 48-well arrays per plate. Plates with transfected cells were incubated for 18–20 h at 37 °C/5% CO2. A screen of each tracer across the entire library using two different concentrations requires duplicate plates of transfected cells. Depending on the number of tracers being screened, transfections can be scaled up using the same ratios. The next day, for each tracer, four 20× screening solutions in tracer dilution buffer (Promega) were prepared: two duplicates at final concentration of 20 μM and two duplicates at a final concentration of 2 μM. […] The four resulting solutions were diluted 4-fold in Opti-MEM without serum or phenol red to generate 5× solutions (5 µM and 0.5 µM tracer +/− 100 μM competing compound). To screen the library, a BioTek MultiFlo FX liquid dispenser was used to dispense 22.5 µL of tracer solution to the top 4 rows and 22.5 µL tracer + competing compound solution to the 4 bottom rows. Plates were briefly mixed on an orbital shaker and incubated for 1.5 h at room temperature. […] Plates were briefly mixed on an orbital shaker and incubated for 15 min to allow complementation.

| SMILES | NanoBRET Fold Response (EDNRB, tracer 0.1μM) | NanoBRET Fold Response (EDNRB, tracer 1μM) | also measured |
| --- | --- | --- | --- |
| Cc1nc2n(c(=O)c1CCN1CCC(c3noc4cc(F)ccc34)CC1)CCCC2OC(=O)NCCOCCOCCOCCOCCNC(=O)CCc1ccc2n1[B-](F)(F)[N+]1=C(c3ccc[nH]3)C=CC1=C2 (stereo not shown) [Risperidone-2-NB590] | 1.02 | 0.97 |  |
| CCOC(=O)c1cc(C#N)c(N2CCC(C(=O)NS(=O)(=O)Cc3ccccc3/C=C/C(=O)NCCNC(=O)CCc3ccc4n3[B-](F)(F)[N+]3=C(c5ccc[nH]5)C=CC3=C4)CC2)nc1C [AZD1283-1-NB590] |  |  | NanoBRET Fold Response (EDNRB, 0.1μM): 1.03; NanoBRET Fold Response (EDNRB, 1μM): 0.98 |
| Cc1cc2c(s1)Nc1ccccc1N=C2N1CCN(CCCNC(=O)CCOCCOCCOCCOCCNC(=O)CCc2ccc3n2[B-](F)(F)[N+]2=C(c4ccc[nH]4)C=CC2=C3)CC1 [Olanzapine-a-2-NB590] | 1.00 | 0.89 |  |
| COc1ccccc1N1CCN(CCCCN2C(=O)c3ccc(CNC(=O)CCOCCNC(=O)c4ccc(CNC(=O)CCc5ccc6n5[B-](F)(F)[N+]5=C(c7ccc[nH]7)C=CC5=C6)cc4)cc3C2=O)CC1 [NAN-190-3-NB590] | 0.95 | 1.00 |  |
| CC(C)N(CC[C@H](c1ccccc1)c1cc(CCNC(=O)CCOCCOCCOCCOCCNC(=O)CCc2ccc3n2[B-](F)(F)[N+]2=C(c4ccc[nH]4)C=CC2=C3)ccc1O)C(C)C [Tolterodine-2-NB590] | 0.97 | 1.03 |  |
| CN(C)CCC=C1c2ccccc2CCc2ccc(C(=O)NCCNC(=O)CCOCCOCCOCCOCCNC(=O)CCc3ccc4n3[B-](F)(F)[N+]3=C(c5ccc[nH]5)C=CC3=C4)cc21 [Amitriptyline-b-2-NB590] |  |  | NanoBRET Fold Response (tracer at 1μM, listed as amitriptyline-b-2-NB590): 0.83 |
| O=C(CCOCCOCCOCCOCCNC(=O)CCc1ccc2n1[B-](F)(F)[N+]1=C(c3ccc[nH]3)C=CC1=C2)NCCCN1CCN(C2=Nc3ccccc3Oc3ccc(Cl)cc32)CC1 [Loxapine-a-2-NB590] | 1.05 | 0.89 |  |
| CN(C)CCC=C1c2ccccc2CCc2ccc(C(=O)NCCNC(=O)CCOCCOCCOCCOCCNC(=O)CCc3ccc4n3[B-](F)(F)[N+]3=C(c5ccc[nH]5)C=CC3=C4)cc21 [Amitriptyline-a-2-NB590] |  |  | NanoBRET Fold Response (tracer at 0.1μM): 1.04; NanoBRET Fold Response (tracer at 1μM): 1.05 |
| O=C(CCc1ccc2n1[B-](F)(F)[N+]1=C(c3ccc[nH]3)C=CC1=C2)NCCOCCOCCNC(=O)OCCOCCN1CCN(C2=Nc3ccccc3Sc3ccccc32)CC1 [Quetiapine-a-2-NB590] | 0.97 | 0.99 |  |
| COc1ccccc1N1CCN(CCCCN2C(=O)c3ccc(CNC(=O)CCOCCOCCOCCOCCNC(=O)CCc4ccc5n4[B-](F)(F)[N+]4=C(c6ccc[nH]6)C=CC4=C5)cc3C2=O)CC1 [NAN-190-2-NB590] | 1.05 | 0.99 |  |
| CN1CCN(C2=Nc3cc(Cl)ccc3N(CC(=O)NCCOCCOCCOCCOCCNC(=O)CCc3ccc4n3[B-](F)(F)[N+]3=C(c5ccc[nH]5)C=CC3=C4)c3ccccc32)CC1 [Clozapine-c-2-NB590] |  |  | NanoBRET Fold Response (EDNRB, 0.1μM tracer): 1.00; NanoBRET Fold Response (EDNRB, 1μM tracer): 1.06 |
| COc1ccc2[nH]c(-c3ccc(CNC(=O)CCOCCOCCOCCOCCNC(=O)CCc4ccc5n4[B-](F)(F)[N+]4=C(c6ccc[nH]6)C=CC4=C5)cc3)c(CCNC(C)=O)c2n1 [AzomelatoninICO9-2-NB590] |  |  | NanoBRET Fold Response (0.1μM tracer): 0.95; NanoBRET Fold Response (1μM tracer): 1.11 |
| O=C(CCOCCOCCOCCOCCNC(=O)CCc1ccc2n1[B-](F)(F)[N+]1=C(c3ccc[nH]3)C=CC1=C2)NCCCN1CCN(C2=Nc3cc(Cl)ccc3Nc3ccccc32)CC1 [Clozapine-a-2-NB590] |  |  | NanoBRET Fold Response (EDNRB, 0.1μM tracer): 1.01; NanoBRET Fold Response (EDNRB, 1μM tracer): 0.93 |
| CCCn1c(=O)c2[nH]c(-c3ccc(OCC(=O)NCCNC(=O)CCOCCNC(=O)c4ccc(CNC(=O)CCc5ccc6n5[B-](F)(F)[N+]5=C(c7ccc[nH]7)C=CC5=C6)cc4)cc3)nc2n(CCC)c1=O [XAC-3-NB590] | 0.92 | 1.18 |  |
| O=C(CCc1ccc2n1[B-](F)(F)[N+]1=C(c3ccc[nH]3)C=CC1=C2)NCc1ccc(C(=O)NCCOCCOCCNCC(O)COc2cccc3ccccc23)cc1 (stereo not shown) [Propranolol-3-NB590] |  |  | NanoBRET Fold Response (EDNRB, 0.1μM): 1.05; NanoBRET Fold Response (EDNRB, 1μM): 1.01 |
| O=C(CCc1ccc2n1[B-](F)(F)[N+]1=C(c3ccc[nH]3)C=CC1=C2)NCc1ccc(C(=O)NCCOCCC(=O)N[C@@H]2CC[C@@]3(O)[C@H]4Cc5ccc(O)c6c5[C@@]3(CCN4CC3CC3)[C@H]2O6)cc1 [Naltrexone-3-NB590] | 0.94 | 1.06 |  |
| CN(CCC=C1c2ccccc2CCc2ccccc21)C(=O)CCOCCOCCOCCOCCNC(=O)CCc1ccc2n1[B-](F)(F)[N+]1=C(c3ccc[nH]3)C=CC1=C2 [Amitriptyline-e-2-NB590] |  |  | NanoBRET Fold Response (tracer at 1μM): 1.01 |
| N#CN=C(NCCCOc1cccc(CN2CCCCC2)c1)NCCNC(=O)CCOCCOCCOCCOCCNC(=O)CCc1ccc2n1[B-](F)(F)[N+]1=C(c3ccc[nH]3)C=CC1=C2 [Aminopotentidine-2-NB590] | 1.03 | 1.02 |  |
| COc1ccc2c(n1)c(CCNC(C)=O)cn2CCNC(=O)CCc1ccc2n1[B-](F)(F)[N+]1=C(c3ccc[nH]3)C=CC1=C2 [Azamelatonin-1-NB590] |  |  | NanoBRET Fold Response (0.1μM tracer): 0.96; NanoBRET Fold Response (1μM tracer): 0.96 |
| CC(C)N(CC[C@H](c1ccccc1)c1cc(CCNC(=O)c2ccc(CNC(=O)CCc3ccc4n3[B-](F)(F)[N+]3=C(c5ccc[nH]5)C=CC3=C4)cc2)ccc1O)C(C)C [Tolterodine-BZ-NB590] | 0.96 | 0.98 |  |
| CN1CCN(C2=Nc3cc(Cl)ccc3Nc3ccc(CNC(=O)CCOCCOCCOCCOCCNC(=O)CCc4ccc5n4[B-](F)(F)[N+]4=C(c6ccc[nH]6)C=CC4=C5)cc32)CC1 [Clozapine-b-2-NB590] |  |  | NanoBRET Fold Response (EDNRB, 0.1μM tracer): 0.96; NanoBRET Fold Response (EDNRB, 1μM tracer): 0.99 |

From publication PMC8151276, “An Integrated Approach toward NanoBRET Tracers for Analysis of GPCR Ligand Engagement” (Molecules, 2021)
